This passage reports IC50 and EC50 results from patent US5614533A, “Substituted pipecolinic acid derivatives as HIV protease inhibitors” (Bio-Mega/Boehringer Ingelheim Research, Inc., priority 1994, dated 1997).

Experiment [1] has as its target T1, HIV protease (Human immunodeficiency virus type 1 group M subtype B, UniProt P04585).
T1 construct: HIV protease was expressed in E. coli; made in house; host or cells: E. coli (plasmid pBRT1 prt+)
The experiment in a line: Recombinant HIV Protease HPLC Assay. The format is biochemical. The conditions noted are these: 37°, 30 min, pH 5.5. The text has this: The procedure is based on the capacity of the test compound to inhibit enzymatic cleavage by HIV protease of a decapeptide (the substrate) having an amino acid sequence which includes a known HIV protease cleavage site of a HIV polyprotein; see H. G. Krausslich et al., Proc. Natl. Acad. Sci. USA, 86, 807 (1989). Details of this assay together with the results obtained for exemplified compounds of formula 1 are described in the examples hereinafter.
Recombinant HIV Protease HPLC Assay:
Enzyme: HIV protease was expressed in E. coli {construct pBRT1 prt^+, see W. G. Farmerie et al., Science, 236, 305 (1987)}, according to the following protocol:
E. coli cells containing the pBRT1 prt^+ plasmid were used to inoculate a seed culture media composed of Luria-Bertani Broth containing 100 μg/mL of ampicillin. Flasks were incubated at 37° under agitation for 17 h. Production flasks containing sterile M9 broth, supplemented with 100 μg/mL of ampicillin, were inoculated at a level of 1% (v/v) using the seed culture described above. Total volume in each production flask was 500 mL in a 2 L Erlenmeyer flask. Flasks were incubated at 37° under agitation until a cell concentration corresponding to an optical density ([…]) of 0.6 was reached (no dilution). This time span was routinely 3-4 h. Flasks were then supplemented with 5 mM isopropylthiogalactoside (IPTG, Research Organics, Cleveland, Ohio, USA) and incubation was continued until the cell concentration reached an optical density of 0.2 at 16-fold dilution. Flasks were then supplemented with 1 mM phenylmethylsulfonyl fluoride (PMSF) and rapidly chilled to 4°. The bacterial cells were recovered by centrifugation at 4°. The wet pellet was stored at -70°.
All steps below were performed at 4° unless otherwise indicated. Thawed cells were mixed with buffer A {50 mM tris(hydroxymethyl)[…] HCl (Tris-HCl, pH 7.4); 0.6 mM ethylenediaminetetraacetic acid (EDTA); 0.375M NaCl, 0.2% Nonidet P-40® (BDH Chemicals Ltd., Poole, UK); 1 mM PMSF}, at a ratio of one part cells to nine parts buffer A. Diatomaceous earth (Celite 545®, John Manville, Lompoc, Calif. USA) was added at a ratio of two parts to one part of wet cell weight. The resulting slurry was homogenized at high speed (ca. 20,000 rpm) on a Waring® industrial blender for 8×15 sec. pulses. Cell debris/Celite® was collected by centrifugation and the resulting pellet was extracted with 4.5 parts of buffer A to one part wet solids using the homogenization procedure described above. Supernatants from both homogenization steps were combined and soluble protein was precipitated by the addition of solid (NH4)2 SO4 to yield a final concentration of 75% saturation. This mixture was agitated for 60 min and the precipitate was recovered by centrifugation. The resulting pellet was suspended in buffer B {50 mM Tris-HCl, pH 8; 30 mM NaCl; 1 mM DL-dithiothreitol (DTT); 1 mM EDTA; 1 mM PMSF; 10% glycerol}, and dialyzed for 18 h against the same buffer.
An aliquot of the dialyzed extract containing 150 mg of the protein was loaded onto a Sephadex A25® anion exchange column (Pharmacia, Uppsala, Sweden) with bed dimensions of 70 cm length and 2.5 cm diameter. The sample was eluted isocratically with buffer B at a linear flow rate of 10 cm/h. Fractions containing HIV protease activity (see below for assay description) were combined, and soluble protein was precipitated by the addition of saturated aqueous (NH4)2 SO4 to yield a total (NH4)2 SO4 concentration of 85% saturation. Precipitated protein was removed by centrifugation and the resulting pellet was dissolved in buffer C {50 mM 2-(4-morpholino)ethanesulfonic acid (MES), pH 5.5; 150 mM NaCl; 1 mM DTT; 1 mM EDTA; 10% glycerol}. This preparation was dialyzed for 18 h against buffer C, and then frozen at -70°. All crude extracts were purified by chromatography in aliquots containing 150 mg of protein in the same manner as described above. […]

Experiment [2] has as its system HIV (H9/HTLV-IIIB) in C8166 cells. Nature of the experiment: plaque assay: inhibition of syncytia formation in HIV-infected C8166 cells. The format is cell-based. As to conditions: Human immunodeficiency virus 1, IIIB, Table IV, 72 h, 50% inhibition of syncytia formation. The text has this:
Typical of such procedures are those described by S. Harada and N. Yamamoto, Jpn. J. Cancer Res. (Gann), 76, 432 (1985), and S. Harada et al., Science, 229, 563 (1985). An assay based on the latter procedures is described in the examples hereinafter.
The following protocol, used for screening antiviral effects of the compounds of formula 1, is adapted from a plaque assay utilizing HTLV-I transformed cells, previously reported by Harada et al., supra. HTLV-I transformed cells are used because of the rapidity with which HIV will replicate in the cells.
1. The test compound is dissolved in dimethylsulfoxide to a concentration of 5 mg/mL. The resultant solution can be stored at 4° until use.
2. The resultant solution is diluted in RPMI 1640 (Gibco Laboratories, St. Lawrence, Mass., USA) to four times (4×) the final concentration which is to be tested. Once diluted in RPMI 1640, the solution is used in the cell culture assay within 4 h.
3. The 4× solution (50 μL) is added to triplicate wells of a 96 well flat bottomed microtiter plate. RPMI (50 μL) also is added to control wells.
4. C8166 cells (5×10^4) in 50 μL of HEPES-buffered RPMI 1640 (pH=7.2), 10% heat inactivated fetal calf serum (FCS), […] gentamicin (complete media) are added to all wells.
5. Fifty times TCID50 of H9/HTLV-IIIB stock (stored in liquid nitrogen as cell culture supernatant in 50% FCS) in 100 μL of complete media is added to all wells. Infectious titer of virus stocks are as previously determined by end point dilution on C8166 cells. Titer of stocks are stable for 6-12 months when stored at -193°.
6. Microtiter plates are then placed on level shelves of a 37°, 5% CO2 humidified incubator for 72 h.
7. Plates are then removed and centers of syncytia are counted in each well by low power phase contrast light microscopy. […] Control wells should have between 25 and 75 centers of syncytia per well.
8. Percent inhibition of syncytia formation is calculated by the formula: [formula]
The concentration of the test compound which causes a 50% inhibition of syncytia formation, i.e. the EC50, is determined by using the technique of serial dilution of the working solution at step 3 and by using non-linear regression analysis (SAS® program) to graphically plot the observed percent inhibition of syncytia formation against the various concentrations of the test compound.

SMILES strings stand for the structures.

What is called IC50 is the concentration at which inhibition is half-maximal. The term EC50 denotes the concentration giving half of the maximal effect. Read a high EC50 as a need for much substance.

As to `CC(C)(C)NC(=O)[C@@H]1C[C@H](Sc2ccccc2)CCN1C[C@@H](O)[C@H](Cc1ccc(F)cc1)NC(=O)OCc1ccccc1` [Table IV, entry 1, N-tert-butyl-1-{3(S)-(benzyloxycarbonylamino)-2(R)-hydroxy-4-(4-fluorophenyl)butyl}-4(R)-(phenylthio)piperidine-2(S)-carboxamide], in experiment [1] (Table IV), the 50% inhibitory concentration (IC50) stood at 9.5 nM. As for `CC(C)(C)NC(=O)[C@@H]1C[C@H](c2ccccc2)CCN1C[C@@H](O)[C@H](Cc1ccccc1)NC(=O)OCc1ccccc1` [Table IV, entry 2, N-tert-butyl-1-{3(S)-(benzyloxycarbonylamino)-2(R)-hydroxy-4-phenylbutyl}-4(R)-phenylpiperidine-2(S)-carboxamide], the half-inhibitory concentration (IC50) in experiment [1] (Table IV) came to 400 nM. Regarding `CC(C)(C)NC(=O)[C@@H]1C[C@H](Cc2ccccc2)CCN1C[C@@H](O)[C@H](Cc1ccccc1)NC(=O)OCc1ccccc1` [Table IV, entry 3, N-tert-butyl-1-{3(S)-(benzyloxycarbonylamino)-2(R)-hydroxy-4-phenylbutyl}-4(R)-benzylpiperidine-2(S)-carboxamide], in experiment [1] (Table IV), the concentration for half-maximal inhibition (IC50) worked out at 460 nM.

`CC(C)(C)NC(=O)[C@@H]1C[C@H](S(=O)(=O)c2ccccc2)CCN1C[C@@H](O)[C@H](Cc1ccccc1)NC(=O)OCc1ccccc1` [Table IV, entry 4, N-tert-butyl-1-{3(S)-(benzyloxycarbonylamino)-2(R)-hydroxy-4-phenylbutyl}-4(R)-(phenylsulfonyl)piperidine-2(S)-carboxamide]: the half-inhibitory concentration (IC50) in experiment [1] (Table IV) came to 30 nM. The molecule further had a 50% effective concentration (EC50) in experiment [2] of 1400 nM. `CC(C)(C)NC(=O)[C@@H]1C[C@H](Sc2ccccc2)CCN1C[C@@H](O)[C@H](Cc1ccccc1)NC(=O)OCc1ccccc1` [Table IV, entry 5, N-tert-butyl-1-{3(S)-(benzyloxycarbonylamino)-2(R)-hydroxy-4-phenylbutyl}-4(R)-(phenylthio)piperidine-2(S)-carboxamide] gave a half-maximal effective concentration (EC50) in experiment [2] of 800 nM. As for `CC(C)(C)NC(=O)[C@@H]1C[C@H](Oc2ccccc2)CCN1C[C@@H](O)[C@H](Cc1ccccc1)NC(=O)OCc1ccccc1` [Table IV, entry 6, N-tert-butyl-1-{3(S)-(benzyloxycarbonylamino)-2(R)-hydroxy-4-phenylbutyl}-4(R)-phenoxypiperidine-2(S)-carboxamide], in experiment [1] (Table IV), the half-inhibitory concentration (IC50) stood at 53 nM. In the case of `CC(C)(C)NC(=O)[C@@H]1C[C@H](C2CCCCC2)CCN1C[C@@H](O)[C@H](Cc1ccccc1)NC(=O)OCc1ccccc1` [Table IV, entry 7, N-tert-butyl-1-{3(S)-(benzyloxycarbonylamino)-2(R)-hydroxy-4-phenylbutyl}-4(R)-cylohexylpiperidine-2(S)-carboxamide], the IC50 in experiment [1] (Table IV) came to 2100 nM. With `CC(C)[C@H](NC(=O)OCc1ccccc1)C(=O)N[C@@H](Cc1ccccc1)[C@H](O)CN1CC[C@@H](Sc2ccccc2)C[C@H]1C(=O)NC(C)(C)C` [Table IV, entry 8], the 50% inhibitory concentration (IC50) in experiment [1] (Table IV) stood at 3.9 nM. In experiment [2], this molecule came in with an EC50 of 13 nM. Regarding `CC(C)(C)NC(=O)[C@@H]1C[C@H](Sc2ccccc2)CCN1C[C@@H](O)[C@H](Cc1ccccc1)NC(=O)[C@H](CC(N)=O)NC(=O)OCc1ccccc1` [Table IV, entry 9, N-tert-butyl-1-{3(S)-{{N-(benzyloxycarbonyl)asparaginyl}amino}-2(R)-hydroxy-4-phenylbutyl}-4(R)-(phenylthio)piperidine-2(S)-carboxamide], the IC50 in experiment [1] (Table IV) is 4 nM. The 50% effective concentration (EC50) in experiment [2] amounted to 43 nM. The like results for `CC(C)[C@H](NC(=O)OCc1ccccc1)C(=O)N[C@@H](Cc1ccccc1)[C@H](O)CN1CC[C@@H](c2ccccc2)C[C@H]1C(=O)NC(C)(C)C` [Table IV, entry 10, N-tert-butyl-1-{3(S)-{{N-(benzyloxycarbonyl)valyl}amino}-2(R)-hydroxy-4-phenylbutyl}-4(R)-phenylpiperidine-2(S)-carboxamide] were, in that order, 3.1 nM and 90 nM. As to `CC(C)[C@H](NC(=O)OCc1ccccc1)C(=O)N[C@@H](Cc1ccccc1)[C@H](O)CN1CC[C@@H](Sc2ccccn2)C[C@H]1C(=O)NC(C)(C)C` [Table IV, entry 33, N-tert-butyl-1-{3(S)-{{N-(benzyloxycarbonyl)valyl}amino}-2(R)-hydroxy-4-phenylbutyl}-4(R)-(2-pyridinylthio)piperidine-2(S)-carboxamide], in experiment [1] (Table IV), the IC50 is 3.2 nM. As for `CC(C)[C@H](NC(=O)OCc1ccccc1)C(=O)N[C@@H](Cc1ccccc1)[C@H](O)CN1CC[C@@H](Sc2ccncc2)C[C@H]1C(=O)NC(C)(C)C` [Table IV, entry 34, N-tert-butyl-1-{3(S)-{{N-(benzyloxycarbonyl)valyl}amino}-2(R)-hydroxy-4-phenylbutyl}-4(R)-(4-pyridinylthio)piperidine-2(S)-carboxamide], in experiment [1] (Table IV), the IC50 amounted to 2.5 nM. Consider `CC(C)(C)NC(=O)[C@@H]1C[C@H](Sc2ccncc2)CCN1C[C@@H](O)[C@H](Cc1ccccc1)NC(=O)COc1ccccc1` [Table VII, entry 3, N-tert-butyl-1-{3(S)-{{phenoxyacetyl}amino}-2(R)-hydroxy-4-phenylbutyl}-4(R)-(4-pyridinylthio)piperidine-2(S)-carboxamide], for which the IC50 in experiment [1] (Table VII) was 34 nM. `Cc1ccc(F)cc1C(=O)N[C@@H](Cc1ccccc1)[C@H](O)CN1CC[C@@H](Sc2ccncc2)C[C@H]1C(=O)NC(C)(C)C` [Table VII, entry 9, N-tert-butyl-1-{3(S)-{{(5-fluoro-2-methylphenyl)carbonyl}amino}-2(R)-hydroxy-4-phenylbutyl}-4(R)-(4-pyridinylthio)piperidine-2(S)-carboxamide]: in experiment [1] (Table VII), the IC50 was determined as 6.8 nM.
